Experimental data: patent US20260265202A1, “N-(N-AMINOALKYL)[…] SERIES OF CHLORIDE-SENSITIVE FLUOROPHORES AND METHODS OF USE THEREOF” (The General Hospital Corporation, priority 2022, published 2026)

Legend:
[1] = Spectrophotometry and two-photon excitation scans; type: physicochemical
Procedure: Spectrophotometry: Absorption readings were obtained using a Nanodrop One system (Thermo Scientific), while excitation and emission scans were obtained using a Spectramax M2 dual grating system (Molecular Devices). Intensity scans relative to excitation wavelength obtained on either of our custom two-photon excitation (2PE) rigs were analyzed with ImageJ and plotted using Matlab (v2022b).

[2] = Toxicity of probe (stated key feature)

SMILES | excitation wavelength using 2PE [1] [nm] | fluorescence emission maximum ([1]; excitation at 360 nm) | toxicity [2]
O=S(=O)(O)CCCC[n+]1ccc2ccccc2c1 [NSBQ, N-4(sulfobutyl)isoquinolinium, reference compound] | 710 |  | 
NCCCC[n+]1cc2ccccc2c2ccccc21 [ABP, N-(4-aminobutyl)phenantridinium] |  | approximately 420 nm | absence of toxicity
